These results are taken from ChEMBL document CHEMBL4265943, “Design and synthesis of potent dual inhibitors of JAK2 and HDAC based on fusing the pharmacophores of XL019 and vorinostat” (Eur J Med Chem, 2018).

Series [1] in a line: Selectivity index, ratio of CC50 for mouse TAMH cells to IC50 for human PC3 cells. It counts as toxicity. The conditions noted are these: TAMH cells (CC50) and PC3 cells (IC50).
In series [2] the test system is MDA-MB-231. Briefly: Antiproliferative activity against human MDA-MB-231 cells after 72 hrs by MTT assay. It counts as functional, cell-based. To be noted: MDA-MB-231, 72 h.
The test system of series [3] is MDA-MB-231. Briefly: Induction of apoptosis in human MDA-MB-231 cells assessed as necrotic cells at 0.9 uM after 72 hrs by Annexin V-FITC/propidium iodide staining based flow cytometry (reference value: 5.45%). It counts as functional.
The subject of series [4] is HCT-116. Briefly: Induction of apoptosis in human HCT116 cells assessed as necrotic cells at 1.14 uM after 72 hrs by Annexin V-FITC/propidium iodide staining based flow cytometry (reference value: 1.54%). It counts as functional.
Series [5] has as its target T1, Tyrosine-protein kinase JAK3 (Homo sapiens, UniProt P52333).
T1 sequence (P52333 whole entry): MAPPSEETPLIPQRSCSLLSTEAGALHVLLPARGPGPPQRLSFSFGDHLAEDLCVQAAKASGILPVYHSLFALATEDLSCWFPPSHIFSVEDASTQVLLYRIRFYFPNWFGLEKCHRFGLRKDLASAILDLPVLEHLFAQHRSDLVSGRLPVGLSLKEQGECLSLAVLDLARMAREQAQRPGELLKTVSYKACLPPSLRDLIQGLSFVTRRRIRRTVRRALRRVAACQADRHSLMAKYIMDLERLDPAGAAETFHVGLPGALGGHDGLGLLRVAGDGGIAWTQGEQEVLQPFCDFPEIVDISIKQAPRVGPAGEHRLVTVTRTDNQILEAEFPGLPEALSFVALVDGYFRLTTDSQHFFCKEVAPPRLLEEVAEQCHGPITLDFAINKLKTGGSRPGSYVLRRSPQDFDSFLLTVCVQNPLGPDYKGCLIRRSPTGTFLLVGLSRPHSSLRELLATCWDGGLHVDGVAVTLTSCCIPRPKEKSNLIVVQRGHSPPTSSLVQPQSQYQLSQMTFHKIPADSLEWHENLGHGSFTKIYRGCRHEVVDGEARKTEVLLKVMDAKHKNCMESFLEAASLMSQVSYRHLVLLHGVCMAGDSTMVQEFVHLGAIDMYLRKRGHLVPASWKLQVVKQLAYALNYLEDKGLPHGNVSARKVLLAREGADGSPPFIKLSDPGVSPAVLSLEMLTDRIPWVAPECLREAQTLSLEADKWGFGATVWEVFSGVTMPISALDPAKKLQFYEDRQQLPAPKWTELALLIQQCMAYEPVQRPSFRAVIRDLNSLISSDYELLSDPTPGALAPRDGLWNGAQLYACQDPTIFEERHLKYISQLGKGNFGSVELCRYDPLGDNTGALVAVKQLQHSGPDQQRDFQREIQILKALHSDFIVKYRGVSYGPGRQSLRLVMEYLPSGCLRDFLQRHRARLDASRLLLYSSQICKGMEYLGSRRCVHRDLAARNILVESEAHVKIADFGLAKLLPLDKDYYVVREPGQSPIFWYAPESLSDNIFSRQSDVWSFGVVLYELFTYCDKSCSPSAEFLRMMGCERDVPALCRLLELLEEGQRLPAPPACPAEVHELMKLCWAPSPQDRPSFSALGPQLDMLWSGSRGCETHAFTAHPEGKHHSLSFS
Briefly: Inhibition of human JAK3 using poly(Glu:Tyr)(4:1) as substrate preincubated for 20 mins followed by [gamma33P]ATP addition measured after 120 mins by ion exchange filter paper method.

The test system of series [6] is MCF7. Briefly: Induction of apoptosis in human MCF7 cells assessed as early apoptotic cells at 0.86 uM after 72 hrs by Annexin V-FITC/propidium iodide staining based flow cytometry (reference value: 1.19%). It counts as functional.
Series [7] has as its system PC-3. Briefly: Induction of apoptosis in human PC3 cells assessed as late apoptotic cells at 0.71 uM after 72 hrs by Annexin V-FITC/propidium iodide staining based flow cytometry (reference value: 1.01%). It counts as functional.
In series [8] the target is Non-receptor tyrosine-protein kinase TYK2 (Homo sapiens, UniProt P29597). Briefly: Inhibition of human TYK2 using KKSRGDYMTMQIG as substrate preincubated for 20 mins followed by [gamma33P]ATP addition measured after 120 mins by ion exchange filter paper method.
Non-receptor tyrosine-protein kinase TYK2, sequence (P29597 whole entry): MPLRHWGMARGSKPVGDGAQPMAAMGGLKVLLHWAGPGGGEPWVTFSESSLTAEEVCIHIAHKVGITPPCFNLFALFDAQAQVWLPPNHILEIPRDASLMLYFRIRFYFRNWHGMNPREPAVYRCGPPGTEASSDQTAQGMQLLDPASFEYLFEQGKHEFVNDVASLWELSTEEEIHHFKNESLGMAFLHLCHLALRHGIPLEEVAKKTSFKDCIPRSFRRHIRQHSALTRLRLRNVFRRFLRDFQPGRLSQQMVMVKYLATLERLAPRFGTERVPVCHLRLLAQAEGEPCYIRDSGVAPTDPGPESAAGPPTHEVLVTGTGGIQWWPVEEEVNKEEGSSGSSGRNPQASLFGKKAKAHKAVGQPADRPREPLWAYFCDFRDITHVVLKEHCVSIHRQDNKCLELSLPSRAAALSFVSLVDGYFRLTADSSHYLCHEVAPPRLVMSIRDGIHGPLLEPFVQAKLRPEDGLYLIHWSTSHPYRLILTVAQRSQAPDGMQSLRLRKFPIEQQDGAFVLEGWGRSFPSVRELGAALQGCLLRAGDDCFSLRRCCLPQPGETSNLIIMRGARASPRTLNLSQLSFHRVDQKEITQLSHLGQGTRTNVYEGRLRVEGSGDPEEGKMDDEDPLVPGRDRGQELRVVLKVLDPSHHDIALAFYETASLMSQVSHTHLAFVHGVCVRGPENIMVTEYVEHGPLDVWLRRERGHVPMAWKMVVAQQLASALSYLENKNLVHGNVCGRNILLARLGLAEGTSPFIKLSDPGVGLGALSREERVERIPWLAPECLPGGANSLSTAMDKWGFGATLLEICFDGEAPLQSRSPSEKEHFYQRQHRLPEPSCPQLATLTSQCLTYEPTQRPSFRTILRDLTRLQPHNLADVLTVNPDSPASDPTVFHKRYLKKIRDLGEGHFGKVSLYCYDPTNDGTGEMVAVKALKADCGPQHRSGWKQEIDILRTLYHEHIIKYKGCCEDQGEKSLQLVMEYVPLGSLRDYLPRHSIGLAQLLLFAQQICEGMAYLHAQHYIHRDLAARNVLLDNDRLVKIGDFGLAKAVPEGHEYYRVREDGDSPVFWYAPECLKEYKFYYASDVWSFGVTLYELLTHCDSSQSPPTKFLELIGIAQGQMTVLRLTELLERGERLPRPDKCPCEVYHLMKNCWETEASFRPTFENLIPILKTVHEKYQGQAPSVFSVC
The subject of series [9] is MCF7. Briefly: Induction of apoptosis in human MCF7 cells assessed as late apoptotic cells at 0.86 uM after 72 hrs by Annexin V-FITC/propidium iodide staining based flow cytometry (reference value: 1.59%). It counts as functional.
In series [10] the test system is PC-3. Briefly: Induction of apoptosis in human PC3 cells assessed as necrotic cells at 0.71 uM after 72 hrs by Annexin V-FITC/propidium iodide staining based flow cytometry (reference value: 0.66%). It counts as functional.
Series [11] deals with Tyrosine-protein kinase JAK2 (Homo sapiens, UniProt O60674). Briefly: Inhibition of human JAK2 using poly(Glu:Tyr)(4:1) as substrate preincubated for 20 mins followed by [gamma33P]ATP addition measured after 120 mins by ion exchange filter paper method.
Tyrosine-protein kinase JAK2, sequence (O60674 whole entry): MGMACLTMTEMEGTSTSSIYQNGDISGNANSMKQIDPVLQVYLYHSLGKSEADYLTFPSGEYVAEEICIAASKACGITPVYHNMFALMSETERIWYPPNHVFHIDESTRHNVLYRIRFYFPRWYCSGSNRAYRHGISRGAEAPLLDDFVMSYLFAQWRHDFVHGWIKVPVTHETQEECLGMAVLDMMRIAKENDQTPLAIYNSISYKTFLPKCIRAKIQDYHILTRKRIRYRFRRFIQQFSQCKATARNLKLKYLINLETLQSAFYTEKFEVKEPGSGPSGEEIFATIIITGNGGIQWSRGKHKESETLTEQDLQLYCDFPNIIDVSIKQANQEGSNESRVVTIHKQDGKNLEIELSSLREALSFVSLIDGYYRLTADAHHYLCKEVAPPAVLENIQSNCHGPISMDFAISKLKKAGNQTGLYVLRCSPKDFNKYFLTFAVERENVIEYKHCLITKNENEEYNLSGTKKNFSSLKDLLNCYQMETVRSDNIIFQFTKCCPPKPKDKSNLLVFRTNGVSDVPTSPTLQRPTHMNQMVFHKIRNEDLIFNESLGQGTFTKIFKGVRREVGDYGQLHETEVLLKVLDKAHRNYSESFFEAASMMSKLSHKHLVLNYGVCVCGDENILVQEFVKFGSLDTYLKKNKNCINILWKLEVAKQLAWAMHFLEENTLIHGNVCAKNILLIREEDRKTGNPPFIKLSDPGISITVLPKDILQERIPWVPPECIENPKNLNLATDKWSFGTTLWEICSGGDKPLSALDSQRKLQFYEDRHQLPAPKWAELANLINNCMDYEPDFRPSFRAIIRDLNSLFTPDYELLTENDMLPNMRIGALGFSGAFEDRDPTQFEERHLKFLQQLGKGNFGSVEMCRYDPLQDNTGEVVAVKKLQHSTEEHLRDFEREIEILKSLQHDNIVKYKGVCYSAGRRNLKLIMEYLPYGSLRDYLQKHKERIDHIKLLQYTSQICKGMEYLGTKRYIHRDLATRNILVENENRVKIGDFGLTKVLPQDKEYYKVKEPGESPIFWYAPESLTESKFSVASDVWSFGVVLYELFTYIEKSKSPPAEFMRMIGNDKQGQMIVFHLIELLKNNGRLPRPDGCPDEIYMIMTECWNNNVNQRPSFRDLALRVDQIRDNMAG
Series [12] has as its system MCF7. Briefly: Induction of apoptosis in human MCF7 cells assessed as live cells at 0.86 uM after 72 hrs by Annexin V-FITC/propidium iodide staining based flow cytometry (reference value: 95.05%). It counts as functional.
The test system of series [13] is MDA-MB-231. Briefly: Induction of apoptosis in human MDA-MB-231 cells assessed as live cells at 0.9 uM after 72 hrs by Annexin V-FITC/propidium iodide staining based flow cytometry (reference value: 90.98%). It counts as functional.
Series [14] has as its target Tyrosine-protein kinase JAK1 (Homo sapiens, UniProt P23458). Briefly: Inhibition of human JAK1 using poly(Glu:Tyr)(4:1) as substrate preincubated for 20 mins followed by [gamma33P]ATP addition measured after 120 mins by ion exchange filter paper method.
Series [15] concerns HCT-116. Briefly: Induction of apoptosis in human HCT116 cells assessed as live cells at 1.14 uM after 72 hrs by Annexin V-FITC/propidium iodide staining based flow cytometry (reference value: 95.7%). It counts as functional.

Tyrosine-protein kinase JAK1, sequence (P23458 whole entry): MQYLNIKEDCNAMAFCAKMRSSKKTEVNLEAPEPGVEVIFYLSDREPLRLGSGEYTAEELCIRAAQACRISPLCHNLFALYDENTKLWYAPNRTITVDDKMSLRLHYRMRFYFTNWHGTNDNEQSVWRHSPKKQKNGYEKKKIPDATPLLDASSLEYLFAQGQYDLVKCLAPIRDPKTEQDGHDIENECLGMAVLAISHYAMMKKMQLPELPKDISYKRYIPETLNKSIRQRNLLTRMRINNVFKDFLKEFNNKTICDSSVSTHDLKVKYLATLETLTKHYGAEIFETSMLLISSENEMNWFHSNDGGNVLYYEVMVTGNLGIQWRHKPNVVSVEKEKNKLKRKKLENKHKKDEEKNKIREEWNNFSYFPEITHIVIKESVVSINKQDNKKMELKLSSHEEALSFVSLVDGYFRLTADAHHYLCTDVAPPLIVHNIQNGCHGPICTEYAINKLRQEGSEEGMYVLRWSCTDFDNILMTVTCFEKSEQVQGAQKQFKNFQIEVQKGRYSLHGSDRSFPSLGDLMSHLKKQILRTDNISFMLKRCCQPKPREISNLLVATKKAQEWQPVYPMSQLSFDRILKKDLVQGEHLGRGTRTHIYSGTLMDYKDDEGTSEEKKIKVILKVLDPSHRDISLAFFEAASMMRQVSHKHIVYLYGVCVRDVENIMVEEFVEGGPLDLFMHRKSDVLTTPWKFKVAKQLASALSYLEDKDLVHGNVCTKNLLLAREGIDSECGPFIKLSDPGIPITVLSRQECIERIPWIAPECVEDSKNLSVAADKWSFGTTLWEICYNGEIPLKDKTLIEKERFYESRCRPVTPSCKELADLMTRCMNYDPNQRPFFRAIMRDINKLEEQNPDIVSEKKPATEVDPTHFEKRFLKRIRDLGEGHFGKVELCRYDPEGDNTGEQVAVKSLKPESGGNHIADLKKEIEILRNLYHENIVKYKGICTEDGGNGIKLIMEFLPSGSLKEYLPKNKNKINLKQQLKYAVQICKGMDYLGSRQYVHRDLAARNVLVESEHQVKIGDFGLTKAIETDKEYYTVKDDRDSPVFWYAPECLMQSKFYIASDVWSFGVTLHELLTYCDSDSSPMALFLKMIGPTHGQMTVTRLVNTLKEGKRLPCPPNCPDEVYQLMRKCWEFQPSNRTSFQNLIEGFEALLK

Regarding `O=C(CCCCCCC(=O)Nc1ccc(-c2ccnc(Nc3ccc(N4CCOCC4)cc3)n2)cc1)NO`, the selectivity ratio in series [1] turned out to be 9.98. The IC50 amounted to 990 nM with MDA-MB-231 [2]; 80.1 nM in series [5]; 79.4 nM in [8]; 3.1 nM in series [11]; 52.1 nM in [14]. Moreover, the Activity in the series with MDA-MB-231 [3] amounted to 5.87%; with HCT-116 [4], 4.29%; in the series on MCF7 [6], 29.26%; in the series with PC-3 [7], 13.06%; in the series with MCF7 [9], 24.84%; in the series with PC-3 [10], 1.37%. Also, the values for the Activity in the series with MCF7 [12], in the series on MDA-MB-231 [13] and with HCT-116 [15] were 37.54%, 10.29% and 52.4%, respectively.
